Reference: patent US9481674B1, “Dihydropyrrolopyridine inhibitors of ROR-gamma” (Vitae Pharmaceuticals, Inc., priority 2016, dated 2016)

What was measured:
[1] = target: T1, hERG potassium ion channel (Homo sapiens, UniProt Q12809); experiment: hERG Assay (Assay 4); format: cell-based; conditions: HEK293 cells stably transfected with hERG cDNA, pH 7.4, comparator compounds, Table 4, compound at 3 μM
T1 construct: expressed in transfected cells; host or cells: HEK293
Description: Compounds of the invention were tested in vitro against the hERG (human ether-à-go-go-related gene) potassium ion channel (a surrogate for IKr, the rapidly activating delayed rectifier cardiac potassium ion channel).
The buffer was HEPES-buffered physiological saline (HB-PS) solution composed of: 137 mM NaCl, 4.0 mM KCl, 1.8 mM CaCl2, 1 mM MgCl2, 10 mM HEPES, 10 mM glucose, pH adjusted to 7.4 with NaOH, and 0.3% DMSO. Chemicals used in solution preparation were purchased from Sigma-Aldrich (St. Louis, Mo.), unless otherwise noted, and were of ACS reagent grade purity or higher.
HEK (human embryonic kidney) 293 cells were stably transfected with hERG cDNA.
For the patch clamp experiment, onset and steady state inhibition of hERG potassium current was measured using a pulse pattern with fixed amplitudes (depolarization: +20 mV for 2 s; repolarization: −50 mV for 2 s) repeated at 10 s intervals from a holding potential of −80 mV. Peak tail current was measured during the 2 s step to −50 mV. A steady state was maintained for at least 30 seconds before applying compound or positive control (cisapride). Peak tail currents were measured until a new steady state was achieved.
Data acquisition and analyses were performed using the suite of pCLAMP® (ver. 8.2) programs (MDS Analytical Technologies, Sunnyvale, Calif.). […]

IL-17A production = experiment: Human Whole Blood Assay (Assay 3); format: cell-based; conditions: comparator compounds, Table 4, IL-17A, read-out: 50% Human Whole Blood Assay IC50, nM^B (Assay 3)
Description: Human Whole Blood Assay (Assay 3)
Compounds of the invention were tested in the human whole blood assay to measure their effects on IL-17A production as determined by cytokine secretion into 50% blood/media supernatant. Mixtures of sodium heparinized whole blood (isolated from healthy human donors) and the T cell activator CytoStim, in the presence or absence of compound, were plated in sterilized, tissue culture-treated 24-well plates. Specifically, the mixtures in each well were as follows: (1) 500 μL of whole blood, (2) 250 μL of compound diluted into RPMI-1640 media containing 10% HyClone™ FCS (Thermo Fisher Scientific, Waltham, Mass.), Gibco® Pen/Strep and Gibco® NEAA (Life Technologies, Grand Island, N.Y.), and (3) 250 μL of CytoStim (Miltenyi Biotech, Germany) diluted to a final concentration of 10 μL/mL in complete cell culture medium.
IL-17A cytokine expression was determined using 25 μL of the transferred supernatant diluted with 25 μL of Diluent 43 from the Human IL-17A V-PLEX™ kit (cat. # K151RFD-4, Meso Scale Discovery, Rockville, Md.). The assay was performed according to the manufacturer's instructions using included reagents. The IL-17A V-PLEX™ plates were read using the Meso Scale Discovery Imager (Model 1200).

T1 sequence (Q12809 whole entry): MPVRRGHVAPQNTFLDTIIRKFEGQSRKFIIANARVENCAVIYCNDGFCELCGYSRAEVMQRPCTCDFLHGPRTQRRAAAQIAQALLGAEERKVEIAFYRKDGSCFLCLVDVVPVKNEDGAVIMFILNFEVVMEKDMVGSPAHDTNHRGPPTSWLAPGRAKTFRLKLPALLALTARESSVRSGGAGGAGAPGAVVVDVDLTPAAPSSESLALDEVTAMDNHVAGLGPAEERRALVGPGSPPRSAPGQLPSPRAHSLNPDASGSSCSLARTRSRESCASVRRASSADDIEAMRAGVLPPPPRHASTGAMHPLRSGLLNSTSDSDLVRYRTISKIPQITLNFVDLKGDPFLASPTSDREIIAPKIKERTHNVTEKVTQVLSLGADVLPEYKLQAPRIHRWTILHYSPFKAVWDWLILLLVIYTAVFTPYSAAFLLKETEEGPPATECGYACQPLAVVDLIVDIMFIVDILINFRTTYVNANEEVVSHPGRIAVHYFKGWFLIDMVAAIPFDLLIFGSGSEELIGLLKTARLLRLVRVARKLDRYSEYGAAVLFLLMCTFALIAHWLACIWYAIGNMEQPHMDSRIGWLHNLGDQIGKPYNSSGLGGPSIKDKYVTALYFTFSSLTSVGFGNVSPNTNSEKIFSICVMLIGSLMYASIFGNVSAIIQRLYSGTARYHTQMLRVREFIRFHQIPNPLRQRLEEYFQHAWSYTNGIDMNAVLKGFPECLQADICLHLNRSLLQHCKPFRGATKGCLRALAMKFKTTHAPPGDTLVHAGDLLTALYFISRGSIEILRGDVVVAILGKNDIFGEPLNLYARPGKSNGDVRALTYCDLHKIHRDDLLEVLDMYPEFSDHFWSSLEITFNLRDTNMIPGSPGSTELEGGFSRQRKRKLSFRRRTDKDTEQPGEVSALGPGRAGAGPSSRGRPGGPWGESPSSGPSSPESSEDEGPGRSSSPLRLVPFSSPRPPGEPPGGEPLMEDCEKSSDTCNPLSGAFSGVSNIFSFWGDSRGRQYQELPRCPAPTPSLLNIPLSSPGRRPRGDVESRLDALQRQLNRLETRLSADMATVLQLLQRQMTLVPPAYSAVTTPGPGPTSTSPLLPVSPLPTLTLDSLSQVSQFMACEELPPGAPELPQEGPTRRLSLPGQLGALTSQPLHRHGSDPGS

| IC50 (IL-17A production) | SMILES | inhibition at 3 µM [1] |
| --- | --- | --- |
|  | CCS(=O)(=O)c1ccc(CNC(=O)c2cnc3c(c2)CN(C[C@H]2CC[C@H](C(F)(F)F)CC2)[C@H]3C(C)C)cc1 | 57% |
| > 200 nM | CCS(=O)(=O)c1ccc(CNC(=O)c2cnc3c(c2)CN(C[C@H]2CC[C@H](C(F)(F)F)CC2)[C@H]3C(C)C)nc1 [reference compound] | 45.4% |
